Key:
TLR2 = assay: FACS of surface TLR2 on oral keratinocytes; assay type: cell-based, human; details: LPS (10 μg/ml), Phe (10 μg/ml), different concentration of folic acid, 24 hours
Method: (§1) Flow cytometry. NOKSI cells were seeded in 100 mm plates with a density of 1×10^6 cells per plate. Cells were treated with drugs, LPS, and folic acid alone or in combination. After NOKSI were detached using Corning Cell Lifter (Corning) and 10 mM EDTA in PBS, the cells were washed with FACS buffer (PBS containing 1% BSA [Sigma] and 2 mM EDTA). Cells were stained by immunofluorescence for CD282 (TLR2) and CD284 (TLR4). Fluorescent labeled antibodies at a dilution of 1:1000 in staining buffer with 2% FBS in PBS were added and incubated for 30 min in dark on ice. Cells were centrifuged and washed thrice in staining buffer and passed through a 70 μm cell strainer before data acquisition. Data analysis was performed using FlowJo (TreeStar, Ashland, OR, USA). All incubations were performed on ice.
(§2) Oral Keratinocytes Cells were treated with only LPS (10 μg/ml) for 24 hours. […] Cells were treated with LPS (10 μg/ml) and Phe (10 μg/ml) for 24 hours. […] Cells were treated with LPS (10 μg/ml), Phe (10 μg/ml), and FA ([…]) for 24 hours. […] FIG. 16.

TLR4 = assay: FACS of surface TLR4 on oral keratinocytes; assay type: cell-based, human; details: LPS (10 μg/ml), Phe (10 μg/ml), different concentration of folic acid, 24 hours
Method: as §1, §2

[1] = test system: drug-induced gingival overgrowth (DIGO); assay: Mice study #2: preventive and active treatment of DIGO, gingival overgrowth; assay type: in vivo, C57BL/6 mice
Method: Using the C57BL/6, the DIGO were induced in 33 male mice for 14 days in an anaesthetized condition as described above. […] In the prevention group, folic acid (10 μg/ml) was included in the drinking water from the time of ligature placement until end of the study (14 days). […] In the combined prevention and treatment group, both modes of folic acid treatments had provided including PO and local gel application as described above. Mice study #2: Validation study for preventive and active treatment for DIGO. […] One set of these mice were used as a control disease group (FIG. 23A) while the other group was treated with folic acid (gel and in drinking water) (FIG. 23B). In the prevention and treatment group, folic acid (10 μg/ml) (Sigma-Aldrich, St. Louis MO) was included in the drinking water from the time of suture placement until end of the study (14 days). Additionally, gel applications were repeated daily until the end of the study (14 days). The four groups in this study were: • 1. Control group (n=2): no interventions were performed • 2. […] 2D planimetry with stereomicroscopy. […] 3D Digital Imaging and Volumetric Analysis. A 3Shape TRIOS® intraoral digital scanner was used to scan all of the dissected tissue and create a 3D STL (STereoLithography) file from each scan. Autodesk […]® (Autodesk 23 Inc., CA, USA) was used to overlay each individual scan on top of one another, keeping each of the distinct mice studies separately. Anatomical landmarks of the mandibular incisors, interdental papilla, and molars were used to make sure scans were accurately overlaid. Autodesk […]® was then used to selectively remove the mandibular incisors from each digital scan. The scans were all saved and imported into Autodesk Netfabb® (Autodesk Inc., CA, USA) where plane cuts were used to simultaneously crop all scans to include only the essential parts of the gingival tissue that would indicate an increase or decrease in growth. The cropped scans were saved and imported into open source software platform 3DSlicer 4.8, where they were volumetrically analyzed using the “Volumes” module. The quantified volume values were statistically analyzed in GraphPad Prism® 7 (GraphPad Software Inc., CA, USA).

Nc1nc2ncc(CNc3ccc(C(=O)N[C@@H](CCC(=O)O)C(=O)O)cc3)nc2c(=O)[nH]1 [folic acid]
TLR2 receptor on the cell surface (TLR2): do not alter | TLR4 receptor on the cell surface (TLR4): do not alter | gingival overgrowth, 2D planimetry with stereomicroscopy ([1]; active treatment after 1 week of disease): even further reduce these gingival overgrowths | gingival overgrowth, clinical images ([1]; active treatment: DIGO 1 week, sutures removed and cyclosporine stopped, then folic acid p.o. & local): effectively reduce gingival overgrowths | mean gingival volume, 3D morphometric analysis ([1]; folic acid group, day 14, n=5, disease group 23.17±1.134 mm^3, p<0.005): ~16.19±0.9224 mm^3 | gingival overgrowth, 2D planimetry with stereomicroscopy ([1]; preventive treatment): all mice appear to respond | gingival overgrowth, clinical images ([1]; preventive treatment, folic acid p.o. & local, 14 days): prominently reduced gingival overgrowth | overlaid 3D volumes, control vs folic acid treated ([1]; representative samples, day 14, some increase on lingual surfaces): little difference

— US20260000496A1, “MATERIALS AND METHODS FOR DRUG-INDUCED GINGIVAL OVERGROWTH” (Optimed Technology, Inc., priority 2019, published 2026)
